Test results reported in PMC7993394 (Journal of Enzyme Inhibition and Medicinal Chemistry, 2021).

target: T1, BpHldC (Burkholderia pseudomallei, UniProt Q63XZ4); experiment: biochemical
T1 construct: gene BPSL0395
T1 sequence (Q63XZ4 1-161 limits assumed): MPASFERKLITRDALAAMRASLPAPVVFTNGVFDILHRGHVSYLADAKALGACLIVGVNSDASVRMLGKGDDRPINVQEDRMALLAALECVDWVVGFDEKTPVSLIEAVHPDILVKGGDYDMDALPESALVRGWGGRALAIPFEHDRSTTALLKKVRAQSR

With `CCOC(=O)c1sc(NC(=O)CSc2nnc(Cc3ccccc3)o2)c(C#N)c1C` [compound 7929959, ethyl 5-({[(5-benzyl-1,3,4-oxadiazol-2-yl)thio]acetyl}amino)-4-cyano-3-methyl-2-thiophenecarboxylate] as the compound, how does the IC50 read?
The IC50 was 10.9 µM.

How did the IC50 turn out when `CCOC(=O)c1sc(NC(=O)CSc2nnc(-c3ccc(Cl)cc3)o2)c(C#N)c1C` [compound 7933420, ethyl 5-[({[5–(4-chlorophenyl)-1,3,4-oxadiazol-2-yl]thio}acetyl)amino]-4-cyano-3-methyl-2-thiophene carboxylate] was run?
The IC50 was 17.5 µM.

With `CCOC(=O)c1sc(NC(=O)CSc2nnc(-c3ccccc3OCC)o2)c(C#N)c1C` [compound 7991890, ethyl 4-cyano-5-[({[5–(2-ethoxyphenyl)-1,3,4-oxadiazol-2-yl]thio}acetyl)amino]-3-methyl-2-thiophenecarboxylate] as the compound, how does the IC50 read?
The IC50 was 47.1 µM.
